≈ marks a conversion by molar mass, not a printed value.
Tests used:
Format in all cases: functional
[1] = test system: PC-12; test: Concentration required to inhibit human PC-12 cell line growth by 50% at 72 hr continuous exposure; conditions: PC-12, 72 h
[2] = test system: B16; test: Effective dose of intravenously administered compound against B16 melanoma BL6 cells implanted into mice; conditions: Mus musculus, B16, iv
[3] = test system: Mus musculus; test: Effective dose of perorally administered compound against B16 melanoma BL6 cells implanted into mice; range is 11.9-27.6; conditions: B16, po
[4] = test system: PC-6; test: Concentration required to inhibit human PC-6/VP1-1 cell line growth by 50% at 72 hr exposure; conditions: PC-6, 72 h
[5] = test system: PC-6; test: Concentration required to inhibit human PC-6/VCR29-9 cell line growth by 50% at 72 hr exposure; conditions: PC-6, 72 h
[6] = test system: P388; test: Concentration required to inhibit mouse P388 cell line growth by 50% at 72 hr continuous exposure; conditions: P388, 72 h
[7] = test system: PC-6; test: Concentration required to inhibit human PC-6 cell line growth by 50% at 72 hr continuous exposure; conditions: PC-6, 72 h
[8] = test system: PC-6; test: Concentration that inhibited the growth of PC-6/VCR29-9 cells by 50% at 72 hr continuous exposure; conditions: Homo sapiens, PC-6, 72 h
[9] = test system: B16; test: Effective dose of perorally administered compound against B16 melanoma BL6 cells implanted into mice; conditions: Mus musculus

Compound | GI50 [1] [ng/mL] | ED50 [2] [mg/kg] | ED50 [3] [mg/kg] | GI50 [4] [ng/mL] | GI50 [5] [ng/mL] | GI50 [6] [ng/mL] | GI50 [7] [ng/mL] | GI50 [8] [ng/mL] | ED50 [9] | ED50 ([9]; B16, po) [mg/kg]
CC(=O)O[C@@]12CO[C@@H]1CC[C@@]1(C)[C@@H]3O[C@H](CNC4CCC4)O[C@@H]3C3=C(C)[C@@H](OC(=O)[C@H](O)[C@@H](NC(=O)OC(C)(C)C)c4ccccn4)C[C@@](O)([C@@H](OCc4ccccc4)[C@@H]12)C3(C)C | 1.45 (≈ 1.66 nM) | 7.9 | 27.6 | 81.7 (≈ 93.3 nM) | 4.88 (≈ 5.57 nM) | 0.56 (≈ 0.639 nM) | 0.83 (≈ 0.947 nM) |  |  | 
CC(=O)O[C@@]12CO[C@@H]1CC[C@@]1(C)[C@@H]3O[C@H](CN(C)C)O[C@@H]3C3=C(C)[C@@H](OC(=O)[C@H](O)[C@@H](NC(=O)OC(C)(C)C)c4cncs4)C[C@@](O)([C@@H](OCc4ccccc4)[C@@H]12)C3(C)C | 0.17 (≈ 0.199 nM) |  |  | 23.8 (≈ 27.8 nM) |  | 0.07 (≈ 0.0818 nM) | 0.3 (≈ 0.35 nM) | 1.63 (≈ 1.9 nM) |  | 
CC(=O)O[C@@]12CO[C@@H]1CC[C@@]1(C)[C@@H]3O[C@H](CN4CCOCC4)O[C@@H]3C3=C(C)[C@@H](OC(=O)[C@H](O)[C@@H](NC(=O)OC(C)(C)C)c4cncs4)C[C@@](O)([C@@H](OCc4ccccc4)[C@@H]12)C3(C)C | 0.12 (≈ 0.134 nM) | 7.9 |  | 20.5 (≈ 22.8 nM) |  | 0.04 (≈ 0.0445 nM) | 0.07 (≈ 0.0779 nM) | 0.66 (≈ 0.735 nM) | None | 
CC(=O)O[C@@]12CO[C@@H]1CC[C@@]1(C)[C@@H]3O[C@H](CNC4CC4)O[C@@H]3C3=C(C)[C@@H](OC(=O)[C@H](O)[C@@H](NC(=O)OC(C)(C)C)c4ccccn4)C[C@@](O)([C@@H](OCc4ccccc4)[C@@H]12)C3(C)C | 0.3 (≈ 0.348 nM) |  |  | 49.4 (≈ 57.3 nM) | 2.22 (≈ 2.58 nM) | 0.17 (≈ 0.197 nM) | 0.54 (≈ 0.626 nM) |  |  | 
CC(=O)O[C@@]12CO[C@@H]1CC[C@@]1(C)[C@@H]3O[C@H](CN(C)C)O[C@@H]3C3=C(C)[C@@H](OC(=O)[C@H](O)[C@@H](NC(=O)OC(C)(C)C)C(C)(C)C)C[C@@](O)([C@@H](OCc4ccccc4)[C@@H]12)C3(C)C | 0.5 (≈ 0.603 nM) | 11.9 |  | 15.7 (≈ 18.9 nM) | 1.42 (≈ 1.71 nM) | 0.73 (≈ 0.881 nM) | 0.67 (≈ 0.808 nM) |  |  | 11.9
CC(=O)O[C@@]12CO[C@@H]1CC[C@@]1(C)[C@@H]3O[C@H](CN4CCOCC4)O[C@@H]3C3=C(C)[C@@H](OC(=O)[C@H](O)[C@@H](NC(=O)OC(C)(C)C)c4ccc(F)cn4)C[C@@](O)([C@@H](OCc4ccccc4)[C@@H]12)C3(C)C |  | 3.5 |  |  |  |  |  |  |  | 7.9
